# Test results published in patent publication US20250025490A1, “INDUCTION OF TRAINED IMMUNITY FOR THE TREATMENT OF HYPERPROLIFERATIVE DISORDERS” (priority 2021, published 2025).
# Assays:
# Format in all cases: cell-based, mice
# [1] = system: peritoneal macrophages; experiment: In vitro training and re-stimulation of peritoneal macrophages (Example 2), TNF-α ELISA
# Method: Isolation and culture of peritoneal macrophages. Mice were euthanized with CO2 inhalation and injected i.p. with 5 ml of sterile cold, complete DMEM medium (Sigma Aldrich) followed by gentle massage of the peritoneum. The peritoneal fluid was then collected, centrifuged at 1600 rpm for 5 min. The cell pellet was washed, counted, and plated at appropriate numbers in complete DMEM. The cells were incubated for 2-4 hours at 37° C. and 5% CO2 to allow peritoneal macrophages attached to the plates. The floating cells were aspirated and plates were gently washed with sterile pre-warmed medium and then added with fresh complete DMEM. For comparison studies between different mouse strains, peritoneal cells were stained with viability dye and anti-F4/80 antibodies (Biolegend) and F4/80^+ macrophages were sorted by FACS Aria III (BD Bioscience).
# In vitro training and re-stimulation of peritoneal macrophages. Peritoneal macrophages were treated with 25 μg/ml of WGP or polystyrene beads (3 μm, Sigma-Aldrich) and incubated for 24 h at 37°° C. with 5% CO2. Macrophages were then washed with pre-warmed complete DMEM at least twice to remove excess WGP or polystyrene beads, added with fresh complete DMEM and incubated 6 days. On day 7, macrophages were re-stimulated with different stimuli such as LPS (10 ng/ml) (Sigma), tumor cells, tumor cell culture supernatants (40%) or rMIF (100 ng/ml) (kindly provided by Dr. Robert Mitchell) for 24 h. The culture supernatants were harvested and assayed for TNF-α by ELISA. For cell culture supernatants, tumor cell lines including LLC, B16F10, and EL4, and control cell line MLE-12 were used.
# These cell lines were cultured (1 million/4 ml complete DMEM) in a 6-well plate and incubated for 72 h. The supernatants were harvested and stored at −80° C. in aliquots.
# ELISA for TNF-α and MIF. TNF-α in the culture supernatants was measured using TNF-α ELISA kit (Biolegend) and MIF levels in the culture supernatants were quantified using mouse MIF ELISAkit (R&D Systems) per the manufacturer's instruction.
# In vitro training with S1P. Peritoneal macrophages were stimulated with 200 nM or 300 nM of S1P for 24 h at 37° C. and 5% CO2. The macrophages were then washed and allowed for resting. On day 7, the macrophages were stimulated with LPS (10 ng/ml) or LLC culture supernatant (40%) for 24 h and the supernatants were collected for the quantification of TNF-α using ELISA. For another set of in vitro-training experiment, macrophages were trained with S1P in the presence of Mdivi-1 (10 μM) during S1P training and throughout the resting period. Cells were restimulated with LPS and the supernatants were collected to determine TNF-α levels by ELISA.
# […] The inhibitors were further added to the macrophage cultures and incubated at 37° C. and 5% CO2 for 6 more days. On day 7, the macrophages were washed once with pre-warmed complete DMEM and added LPS (10 ng/ml) or LLC culture supernatant (40%) for re-stimulation.
# [2] = system: KPC tumor cells; experiment: Cytotoxicity assay of pancreatic CD11b+ cells against KPCLuc+ cells; details: NAC 1 mM
# Method: The pancreas from WGP and PBS treated mice were harvested and the CD11b^+ populations were isolated using magnetic CD11b^+ MicroBeads (Miltenyi Biotec) and an autoMACS Pro Separator (Miltenyi Biotec). Purified CD11b^+ cells were then washed and counted, and these were plated at a ratio of 1:20 tumor:effector cells in a 96 well plate. All experimental samples were run in triplicate. After plating the CD11b^+ cells, the ROS inhibitor […] (NAC) (Sigma Aldrich) was added to one set of PBS and WGP derived cells at 1 mM for 1 hour before the addition of 5000 luciferase expressing KPC^+ pancreatic tumor cells to all wells. After 24 hours, of coculture, the plates were centrifuged and 20 μL of the supernatant was mixed with 100 μL of the Luciferase Assay Reagent (Promega). Luciferase activity measured in the supernatant correlated with tumor cells that had been killed by the effector cells and was measured using a luminometer (Femtomaster FB 12, Zylux Corporation). The spontaneous luciferase signal from plated tumor cells was subtracted from the measurement of the supernatant. Luciferase values are represented as Relative Light Units (RLUs).
# [3] = system: peritoneal macrophages; experiment: Mitochondrial ROS quantitation (MitoSox Red); details: peritoneal macrophages, 24 h
# Method: (§1) Mitochondrial ROS quantitation. Peritoneal macrophages were treated with WGP or S1P in the presence or absence of Mdivi-1 and incubated at 37° C. with 5% CO2 for 24 h. The cells were then harvested, washed with PBS and pelleted by centrifugation at 1600 rpm for 5 min at room temperature. The pellets were then stained with MitoSOX Red dye (5 μM) (Invitrogen) at 37° C. for 15 min. The cells were washed with pre-warmed HBSS followed by another wash with PBS at room temperature. The cells were then stained with viability dye and anti-F4/80 and then acquired by flow cytometry. Flow cytometry for p-Drp-1. Peritoneal macrophages were treated with WGP (25 μg/ml) or S1P (1 μM) and incubated at 37° C. with 5% CO2 for 3-4 h. Following the completion of incubation, the cells were quickly washed with cold PBS to stop the activation. The cells were harvested and washed with PBS. The cells were then fixed with 4% formaldehyde for 15 min at room temperature, washed with PBS and permeabilized using ice-cold 100% methanol on ice for a minimum of 10 min. The cells were then stained with primary antibody (p-Drp1) (Cell Signaling) for 1 hour at room temperature followed by secondary antibody (Anti-rabbit IgG) (Biolegend) for 30 min at room temperature as instructed in the Cell Signaling phospho-stain protocol and analyzed using flow cytometry.
# [4] = system: Drp-1; experiment: p-Drp-1 / Drp-1 by flow cytometry and Western blot
# Method: as §1
# Western blot analysis for total Drp-1 and p-Drp-1. […]
smiles,measurement,setting,value
CCCC[C@@H](C)[C@@H](OC(=O)C[C@@H](CC(=O)O)C(=O)O)[C@H](C[C@@H](C)C[C@H](O)CCCC[C@@H](O)C[C@H](O)[C@H](C)N)OC(=O)C[C@@H](CC(=O)O)C(=O)O [Fumonisin-B1],effect on WGP-mediated trained response (TNF-α),"[1]; Fumonisin-B1 25 μM, LPS and LLC supernatants",abrogated WGP-mediated trained response
"CC(=O)N[C@@H](CS)C(=O)O [NAC, N-Acetyl Cysteine]",effect of ROS inhibition on WGP-elicited cytotoxicity,[2],completely abrogated the WGP-elicited increase in cytotoxicity
"CCCCCCCCCCCCC/C=C/[C@@H](O)[C@@H](N)COP(=O)(O)O [S1P, sphingosine-1-phosphate]",mtROS production,[3],exhibited an enhanced mtROS production
same,phosphorylation of Drp-1,[4]; peritoneal macrophages,significantly increased p-Drp-1 in macrophages
same,TNF-α production of macrophages trained with S1P,"[1]; S1P 200 nM or 300 nM, LPS or LLC supernatant restimulation",showed significantly higher TNF-α production compared to the untrained controls
O=C(NCc1ccncc1)C12CC3CC(C1)CC(c1ccc(Cl)cc1)(C3)C2 [Sphk2i],effect on p-Drp-1 in WGP-treated macrophages,"[4]; Sphk2i 50 μM, 3 h and 6 h",decreased the level of p-Drp-1 but not total Drp-1
same,effect on WGP trained responses (TNF-α),"[1]; Sphk2i 25 μM or 50 μM, LPS and LLC supernatant",completely attenuated the trained responses
